Source: patent publication US8207314B2, “Tumor antigens for prevention and/or treatment of cancer” (Sanofi Pasteur Limited, priority 2003, dated 2012)

What was measured:
[1] = system: autologous T-cell-enriched PBMC preparations; test: IFN-γ ELISPOT of human T cells stimulated with AAC2-2 peptide pools; format: cell-based; conditions: human T cells from HLA-A-0201 donors, after third and fourth round of stimulation with AAC2-2 peptide pools
Experimental: Using the AAC2-2 amino acid sequence, a library of 9-mer peptides predicted to bind to HLA-A-0201 was constructed (Table III; “N” indicates the sequence is not found within the mouse homolog, while “Y” indicates the sequence is found within the mouse homolog). Twenty-three of the peptides were dissolved in DMSO at 10 mg/ml (Table IV) and used in human PBMC cultures to test for their ability to elicit CD8 and CD4αβ T-cell responses in vitro.
Using GM-CSF and IL-4, dendritic cells (DC) were generated from peripheral blood monocytes of blood donors expressing HLA-A-0201.
These DC were used to stimulate autologous T-cell-enriched PBMC preparations. The T cells were re-stimulated with autologous PBMC and then re-stimulated with CD40-ligand-activated autologous B cells. […] Peptide group 6 includes the following peptides: […] (aa 36-44), […] (aa 41-49), and […] (aa 95-103).

[2] = system: peptide-loaded TAP-deficient T2 cells; test: CTL activity of AAC2-2 peptide pool-specific T-cell line; format: cell-based, human; conditions: HLA-A-0201-restricted, T-cell line stimulated by peptide group 6
Experimental: Thus, it was determined that AAC2-2 peptides are immunogenic in the human immune system.

With ILTDVTLLV [EC5] the “IFN-γ production (ELISPOT)” value [1] was “dominant activity”, the “CTL activity killing peptide-loaded T2 target cells” value [2] was “dominant activity” and the “CTL activity killing peptide-loaded T2 target cells” value ([2]; listed as ILTDVTLLV) was “dominant peptide”.
